Columns and labels:
[1] = tested on: Treponema hyodysenteriae; experiment: in vitro Streak Plate Test Method (inhibition endpoint / MIC on trypticase soy blood agar); type: cell-based; conditions: summary of Table 1
Protocol: The following test procedure was used to evaluate the anti-Treponema hyodysenteriae activity of the compounds in the present invention. This test procedure establishes the lowest concentration of the compounds that will inhibit the growth on cultures of Treponema hyodysenteriae in an in vitro Streak Plate Test Method.
Procedure: Stock solutions containing 10,000, 1,000, 100, 10, 1.0, and 0.1, micrograms per milliliters of the compound to be tested were prepared. The final dilutions to establish the test concentrations in the media were made by placing the correct volume of stock solution in a petri dish, adding the media (trypticase soy blood agar), and mixing before the media solidified. After the media solidified, the test cultures of Treponema hyodysenteriae were streaked onto the surface of the agar. Petri dishes containing media without test samples were also set up as culture controls and are inoculated in the same manner. All inoculated plates were incubated at 39°C in anaerobic jars for 48 hrs. Inhibition endpoints were then determined by observing the test plates for growth or no growth of the test cultures at the various concentrations of the compounds. If the culture growth occured at one concentration but not at the next higher concentration, the inhibitory endpoint or MIC (Minimum Inhibitory Concentration) was considered the higher concentration.
Referring to Table 1, the culture numbers refer to field isolate strains of Treponema hyodysenteriae. These field isolates were isolated in Illinois, Iowa, and Nebraska. The numbers giving the results in the Table are read as follows: the first number for each isolate and compound tested corresponds to the concentration in micrograms per milliliter where growth occurred and the second number corresponds to the concentration in micrograms per milliliter where no growth occurred.

[2] = tested on: Treponema hyodysenteriae induced swine dysentery; experiment: Treponema hyodysenteriae induced swine dysentery, lysocellin in feed, 51-day trial, challenge on study day 22; type: in vivo; conditions: for Number of Pigs per Pen Expressing Clinical Signs of Dysentery During the Postchallenge Period: Anorexia / Number of Pigs per Pen Expressing Clinical Signs of Dysentery During the Postchallenge Period: Any clinical signs / Number of Pigs per Pen Expressing Clinical Signs of Dysentery During the Postchallenge Period: Bloody feces / Number of Pigs per Pen Expressing Clinical Signs of Dysentery During the Postchallenge Period: Dehydrated / Number of Pigs per Pen Expressing Clinical Signs of Dysentery During the Postchallenge Period: Depressed / Number of Pigs per Pen Expressing Clinical Signs of Dysentery During the Postchallenge Period: Gauntness / Number of Pigs per Pen Expressing Clinical Signs of Dysentery During the Postchallenge Period: Lethargic / Number of Pigs per Pen Expressing Clinical Signs of Dysentery During the Postchallenge Period: Reddened skin / Number of Pigs per Pen Expressing Clinical Signs of Dysentery During the Postchallenge Period: Rough hair coat / Number of Pigs per Pen Expressing Clinical Signs of Dysentery During the Postchallenge Period: Weak: 5 pigs/pen
Description: One hundred twenty (120) cross-bred barrows and gilts were used in a randomized complete blocks design to evaluate the effect of lysocellin on Treponema hyodysenteriae induced swine dysentery. The swine were divided into 4 groups: (1) non-infected, non-medicated controls, (2) infected non-medicated controls, (3) infected, medicated at 98.43 grams lysocellin/t (100 g/T), and (4) infected, medicated at 196.85 grams lysocellin/t (200 g/T). All were observed through a 51-day trial period. Swine in groups (2)-(4) were challenged with Treponema hyodysenteriae on study day 22 and the post-challenge period data were analyzed for significant differences. A description of the experimental design is summarized as follows:
Comparisons were made on treatment 1 vs. treatments 3 and 4, treatment 2 vs. treatment 3 and 4, and treatment 3 vs. treatment 4. The following observations were made based upon data analyzed: postchallenge performance of swine with respect to daily gain and daily feed gain, number of pigs per pen expressing clinical signs of dysentery during the postchallenge period, number of pig days per pen with clinical signs of dysentery during the postchallenge period, and number of pig days per pen with specified fecal score.
Referring to table 3 and table 4, clinical signs of dysentery observed during the postchallenge period are presented as treatment means of: number of pigs per pen expressing the sign and number of pig days the sign was observed within a pen. The value "pig days" was based on 28 days/pig surviving to the end of the trial or number of days a pig survived during the postchallenge period (for example, 5 pigs/pen on trial for 28 days equals 140 pig days). Removal of pigs from a pen during the trial was taken into account in these calculations.

[3] = 98.43 g/t (100 g/T) lysocellin, mean (lower, higher 95% confidence limits)
[4] = 98.43 g/t (100 g/T) lysocellin, mean (lower, higher 95% confidence limits), 5 pigs/pen for 28 days = 140 pig days
[5] = 196.85 g/t (200 g/T) lysocellin, mean (lower, higher 95% confidence limits)
[6] = 196.85 g/t (200 g/T) lysocellin, mean (lower, higher 95% confidence limits), 5 pigs/pen for 28 days = 140 pig days

## lysocellin
[1]
  activity compared to the controls: comparable activity
[2]; [3]
  Number of Pigs per Pen Expressing Clinical Signs of Dysentery During the Postchallenge Period: Anorexia: 0.00 (-0.27,0.37)
  Number of Pigs per Pen Expressing Clinical Signs of Dysentery During the Postchallenge Period: Any clinical signs: 4.49 (3.42,5.69)
  Number of Pigs per Pen Expressing Clinical Signs of Dysentery During the Postchallenge Period: Bloody feces: 2.73 (1.93,3.66)
  Number of Pigs per Pen Expressing Clinical Signs of Dysentery During the Postchallenge Period: Dehydrated: 1.08 (0.44,1.89)
  Number of Pigs per Pen Expressing Clinical Signs of Dysentery During the Postchallenge Period: Depressed: 1.78 (1.18,2.47)
  Number of Pigs per Pen Expressing Clinical Signs of Dysentery During the Postchallenge Period: Gauntness: 3.98 (3.13,4.92)
  Number of Pigs per Pen Expressing Clinical Signs of Dysentery During the Postchallenge Period: Lethargic: 2.12 (1.50,2.82)
  Number of Pigs per Pen Expressing Clinical Signs of Dysentery During the Postchallenge Period: Reddened skin: 0.87 (0.24,1.69)
  Number of Pigs per Pen Expressing Clinical Signs of Dysentery During the Postchallenge Period: Rough hair coat: 1.93 (1.20,2.79)
  Number of Pigs per Pen Expressing Clinical Signs of Dysentery During the Postchallenge Period: Weak: 1.93 (1.31,2.64)
[2]; [4]
  Number of Pig Days per Pen with Clinical Signs of Dysentery During the Postchallenge Period: Anorexia: 0.00 (-0.30,0.43)
  Number of Pig Days per Pen with Clinical Signs of Dysentery During the Postchallenge Period: Bloody feces: 9.98 (5.72,15.34)
  Number of Pig Days per Pen with Clinical Signs of Dysentery During the Postchallenge Period: Dehydrated: 2.69 (1.40,4.33)
  Number of Pig Days per Pen with Clinical Signs of Dysentery During the Postchallenge Period: Depressed: 3.14 (1.78,4.81)
  Number of Pig Days per Pen with Clinical Signs of Dysentery During the Postchallenge Period: Gauntness: 30.35 (20.97,41.42)
  Number of Pig Days per Pen with Clinical Signs of Dysentery During the Postchallenge Period: Lethargic: 9.08 (4.93,14.42)
  Number of Pig Days per Pen with Clinical Signs of Dysentery During the Postchallenge Period: Reddened skin: 2.21 (0.51,4.72)
  Number of Pig Days per Pen with Clinical Signs of Dysentery During the Postchallenge Period: Rough hair coat: 18.07 (7.46,33.11)
  Number of Pig Days per Pen with Clinical Signs of Dysentery During the Postchallenge Period: Weak: 0.87 (0.08,1.99)
[2]; 196.85 g lysocellin/t (200 g/T) rather than 98.43 g/T, postchallenge period (Table 5, not given)
  fecal condition (number of pen pig days with a specified fecal condition): increased (PM.05) the number of days with normal feces and decreased (P<.05) the incidence of soft, watery or bloody feces
[2]; [5]
  Number of Pigs per Pen Expressing Clinical Signs of Dysentery During the Postchallenge Period: Anorexia: 0.00 (-0.27,0.37)
  Number of Pigs per Pen Expressing Clinical Signs of Dysentery During the Postchallenge Period: Any clinical signs: 2.72 (1.87,3.70)
  Number of Pigs per Pen Expressing Clinical Signs of Dysentery During the Postchallenge Period: Bloody feces: 1.20 (0.63,1.89)
  Number of Pigs per Pen Expressing Clinical Signs of Dysentery During the Postchallenge Period: Dehydrated: 0.23 (-0.18,0.80)
  Number of Pigs per Pen Expressing Clinical Signs of Dysentery During the Postchallenge Period: Depressed: 0.27 (-0.06,0.70)
  Number of Pigs per Pen Expressing Clinical Signs of Dysentery During the Postchallenge Period: Gauntness: 1.96 (1.35,2.67)
  Number of Pigs per Pen Expressing Clinical Signs of Dysentery During the Postchallenge Period: Lethargic: 0.43 (0.08,0.87)
  Number of Pigs per Pen Expressing Clinical Signs of Dysentery During the Postchallenge Period: Reddened skin: 0.55 (0.01,1.28)
  Number of Pigs per Pen Expressing Clinical Signs of Dysentery During the Postchallenge Period: Rough hair coat: 1.31 (0.68,2.06)
  Number of Pigs per Pen Expressing Clinical Signs of Dysentery During the Postchallenge Period: Weak: 1.31 (0.78,1.93)
[2]; [6]
  Number of Pig Days per Pen with Clinical Signs of Dysentery During the Postchallenge Period: Anorexia: 0.00 (-0.30,0.43)
  Number of Pig Days per Pen with Clinical Signs of Dysentery During the Postchallenge Period: Bloody feces: 3.02 (0.78,6.35)
  Number of Pig Days per Pen with Clinical Signs of Dysentery During the Postchallenge Period: Dehydrated: 0.23 (-0.30,1.09)
